Data set [1] deals with T1, human H1 histamine receptors (HRH1) (Homo sapiens, UniProt P35367).
T1 construct: expressed in transfected cells; host or cells: CHO-K1
In words: HRH1 antagonist calcium flux assay (Fluo-8, FLIPR TETRA) in CHO-K1 cells. It counts as cell-based.

The subject of data set [2] is SARS-CoV-2 Delta (B.1.617.2).
Data set [3] concerns SARS-CoV-2 Omicron (B.1.1.529). In words: microbe, parasite or virus in culture.
Data set [4] has as its system SARS-CoV-2 Omicron (B.1.1.529).
Another data set is described as follows: in vitro. Particulars: African green monkey, Cytotoxicity (CC50).
Data set [5] relates to SARS-CoV-2 Delta (B.1.617.2). The data set is described as follows: microbe, parasite or virus in culture.
Where [6] appears, read: CHO-K1, read-out: Normalized % Inhibition.
Where [7] appears, read: Severe acute respiratory syndrome coronavirus 2, VeroE6/TMPRSS2, read-out: % cell viability.

The values that follow come from US20240082277A1, “MODIFIED ANTIHISTAMINE COMPOSITION AND ANTIVIRAL TREATMENT” (priority 2022, published 2024).

The inhibition is the relative decrease from the control value, in per cent. By viability is commonly meant a read-out of living cells in per cent, often relative to untreated cells. What is called CC50 is the concentration that lowers cell viability or growth by half. The IC50 is the point on the concentration scale where inhibition reaches its midpoint.

Converted amounts (≈) assume the structure as drawn. Counter-ions that a name gives are not always drawn. Like-named read-outs stand apart in the source and are kept apart here.

T1 sequence (P35367 whole entry): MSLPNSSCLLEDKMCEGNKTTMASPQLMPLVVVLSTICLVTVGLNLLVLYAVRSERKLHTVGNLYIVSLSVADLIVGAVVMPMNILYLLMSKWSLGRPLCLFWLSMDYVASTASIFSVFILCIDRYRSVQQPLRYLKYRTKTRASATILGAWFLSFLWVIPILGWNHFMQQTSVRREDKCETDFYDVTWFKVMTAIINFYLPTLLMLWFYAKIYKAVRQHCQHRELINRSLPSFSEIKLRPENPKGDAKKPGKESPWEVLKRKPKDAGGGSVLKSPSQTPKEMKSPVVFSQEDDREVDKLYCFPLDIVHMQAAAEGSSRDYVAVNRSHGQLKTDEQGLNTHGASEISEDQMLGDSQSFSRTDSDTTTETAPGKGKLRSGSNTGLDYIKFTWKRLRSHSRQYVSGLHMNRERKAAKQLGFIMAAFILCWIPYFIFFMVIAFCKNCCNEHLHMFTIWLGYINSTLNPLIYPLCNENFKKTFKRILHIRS

Regarding `O=C(O)COCCN1CCN(C(c2ccccc2)c2ccc(Cl)cc2)CC1` (stereo not shown) [Cetirizine Dihydrochloride], in data set [1] (setting [6]), the inhibition at 0.01 µM is 23.9%, the inhibition at 0.03 µM was 23.6%, the inhibition at 0.1 µM was 15.3% and the inhibition at 0.3 µM was 14.2%. In addition, in data set [1] (setting [6]), the inhibition at 1 µM came out at 31.3%, the inhibition at 3 µM was 67.3%, the inhibition at 10 µM amounted to 98.9% and the inhibition at 100 µM amounted to 99.3%. Besides, the inhibition at 30 µM in data set [1] (CHO-K1, 30000 nM, antagonist assay vs 70 nM histamine, read-out: Normalized % Inhibition) worked out at 100%.

With `CN(C)CCOC(c1ccccc1)c1ccccc1` [Diphenhydramine hydrochloride, reference compound], the “Effect on percentage infection (in words)” value in data set [2] is “slight reduction in percentage infection was seen”; in data set [2] (Therapeutic treatment, Delta strain), “slight reduction in percentage infection was seen”.

As to `NCCc1c[nH]cn1` [Histamine], the “RLU (maximum Relative Light Unit)” value in data set [1] was 3431.5 RLU.

Consider `CN(C)CCO[Si](C)(c1ccccc1)c1ccccc1` [Q-Ant #8, N,N-dimethyl-2-((methyldiphenylsilyl)oxy)ethan-1-amine], for which, in data set [3] (setting [7]), the viability at 0.318 µg/mL is 105%, the viability at 1.004 µg/mL was 91.3%, the viability at 3.174 µg/mL came to 96.8% and the viability at 10.029 µg/mL turned out to be 105%. Also, in data set [3] (setting [7]), the viability at 31.691 µg/mL was 101%, the viability at 100.144 µg/mL was 89.8% and the viability at 316.456 µg/mL came out at 36.8%. In data set [4], the “Effect on percentage infection (in words)” value was “reduction in percentage infection was seen” and the “Efficacy (EC50) Omicron” value worked out at 245.6 µg/mL. The “Selectivity index Omicron (CC50/EC50)” value in data set [4] (Therapeutic treatment) is 1.69. The midpoint of cytotoxicity in “in vitro”, the CC50, lay at 613 µg/mL (≈ 2150 µM). For the same molecule, in data set [5] (setting [7]), the viability at 0.318 µg/mL worked out at 102%, the viability at 1.004 µg/mL amounted to 93.9%, the viability at 3.174 µg/mL was found to be 95% and the viability at 10.029 µg/mL worked out at 100%. Further, in data set [5] (setting [7]), the viability at 31.691 µg/mL was found to be 99.4%, the viability at 100.144 µg/mL turned out to be 98.2% and the viability at 316.456 µg/mL came out at 73.5%. For the same molecule, the IC50 in data set [1] worked out at 33.5 nM. The inhibition at 1 µM in data set [1] (setting [6]) stood at 97.7%. The inhibition at 0.0003 µM in data set [1] (CHO-K1, 0.3 nM, antagonist assay vs 70 nM histamine, read-out: Normalized % Inhibition) was -32.6%. Also, in data set [1] (CHO-K1, 1 nM, antagonist assay vs 70 nM histamine, read-out: Normalized % Inhibition), the inhibition at 0.001 µM is -33.4%. Besides, the inhibition at 0.003 µM in data set [1] (CHO-K1, 3 nM, antagonist assay vs 70 nM histamine, read-out: Normalized % Inhibition) was -31%. Moreover, in data set [1] (CHO-K1, 10 nM, antagonist assay vs 70 nM histamine, read-out: Normalized % Inhibition), the inhibition at 0.01 µM was -11.9%. Besides, the inhibition at 0.03 µM in data set [1] (CHO-K1, 30 nM, antagonist assay vs 70 nM histamine, read-out: Normalized % Inhibition) was 29.4%. In addition, the inhibition at 0.1 µM in data set [1] (CHO-K1, 100 nM, antagonist assay vs 70 nM histamine, read-out: Normalized % Inhibition) turned out to be 72.9%. Moreover, the inhibition at 0.3 µM in data set [1] (CHO-K1, 300 nM, antagonist assay vs 70 nM histamine, read-out: Normalized % Inhibition) is 97.1%. The “Cytotoxicity (CC50)” value in the data set with Vero E6 TMPRSS2 cells (African green monkey) was found to be 415.3 µg/mL. Further, in the data set with Vero E6 TMPRSS2 cells (compared with traditional antihistamines), the “Toxicity (in words)” value is reported as “less toxic than traditional antihistamines”. In data set [2], the “Effect on percentage infection (in words)” value is reported as “No effect was seen” and the “Efficacy (EC50) Delta” value stood at 483.0 µg/mL. For the same molecule, in data set [2] (Therapeutic treatment), the “Selectivity index Delta (CC50/EC50)” value came to 0.86.

`CCC(CC)COC(=O)[C@H](C)N[P@](=O)(OC[C@H]1O[C@@](C#N)(c2ccc3c(N)ncnn23)[C@H](O)[C@@H]1O)Oc1ccccc1` [Remdesivir]: in data set [3] (setting [7]), the viability at 0.004 µg/mL was 101%, the viability at 0.012 µg/mL turned out to be 95.9%, the viability at 0.038 µg/mL amounted to 106% and the viability at 0.12 µg/mL is 105%. Moreover, in data set [3] (setting [7]), the viability at 0.38 µg/mL is 92.8%, the viability at 1.202 µg/mL was found to be 84.1%, the viability at 3.797 µg/mL came out at 44.6% and the viability at 12 µg/mL stood at 20.7%. Moreover, in data set [3] (Severe acute respiratory syndrome coronavirus 2, VeroE6/TMPRSS2, read-out: Efficacy (EC50) Omicron), the EC50 is roughly 3 µg/mL (≈ 4.98 µM). For the same molecule, in data set [5] (setting [7]), the viability at 0.004 µg/mL was 105%, the viability at 0.012 µg/mL came to 91.3%, the viability at 0.038 µg/mL came to 96.8% and the viability at 0.12 µg/mL is 105%. Moreover, in data set [5] (setting [7]), the viability at 0.38 µg/mL was found to be 101%, the viability at 1.202 µg/mL is 89.8% and the viability at 3.797 µg/mL was determined as 36.8%. In addition, in data set [5] (Severe acute respiratory syndrome coronavirus 2, VeroE6/TMPRSS2, read-out: Efficacy (EC50) Delta), the EC50 was roughly 3 µg/mL (≈ 4.98 µM).
